One substance from patent US11419902B2, “Compositions comprising bacterial strains” (4D Pharma Research Limited, priority 2018, dated 2022) can be followed below.

For one data set, the system named is IL-6. The experiment in a line: IL-6 secretion by astrocytoma cell line U373 (ELISA). The class given is cell-based, Human. To be noted: U373 cells, 100 μl bacteria supernatant, 24 h, vs untreated and YCFA+ controls. For orientation: An ELISA detects its analyte on a solid surface through an enzyme-linked reagent.
The subject of another data set is Caspase 3 (Casp3). The experiment in a line: Caspase 3 expression in SH-SY5Y cells. The class given is cell-based. To be noted: undifferentiated SH-SY5Y cells, vs control. An excerpt:
The inventors measured the change in Casp3 expression in neuroblastoma cells.

For the next data set, the system named is colon. Kind of data set: Intestinal permeability assay (Ussing chambers). Type of data set: in vivo. To be noted: colon of mice fed with MRx0029. On the procedure: Animals were allowed to habituate to their holding room for one week after arrival into the animal unit. They receive oral gavage (200 μL dose) of live biotherapeutics at a dose of 1×10^9 CFU for 6 consecutive days between 15:00 and 17:00. On day 7, the animals are decapitated, and tissues are harvested for experimentation. Animals were sacrificed in a random fashion regarding treatment and testing condition; sampling occurred between 9.00 a.m. and 2:30 p.m. Trunk blood was collected in potassium EDTA (Ethylene Diamine Tetra Acetic Acid) tubes and spun for 15 min at 4000 g. Plasma was isolated and stored at −80° C. for further analysis. The brain was quickly excised, dissected and each brain region was snap-frozen on dry ice and stored at −80° C. for further analysis. Spleen was removed, collected in 5 mL RPMI media (with L-glutamine and sodium bicarbonate, R8758 Sigma+10% FBS (F7524, Sigma)+1% Pen/Strep (P4333, Sigma)) and processed immediately after culls for ex-vivo immune stimulation. Intestinal tissue (2 3 cm segments of ileum and colon closest to the caecum were excised, and the furthest 1 cm 2 cm of tissue from the caecum were used) were mounted into the Ussing chambers for intestinal permeability assay. The caecum was removed, weighted and stored at −80° C. for SCFAs analysis.

The test system of another data set is IL-8. The experiment in a line: IL-8 secretion in MG U373 cells (ELISA). To be noted: 10% bacteria supernatant 24 h, independently of the presence of LPS (1 ug/mL). Type of data set: cell-based, human. On the procedure: MG U373 is a human glioblastoma astrocytoma derived from a malignant tumour and were purchased from Sigma-Aldrich (cat n. 08061901-1VL). MG U373 human glioblastoma astrocytoma cells were grown in MEM (Sigma Aldrich, cat n. M-2279) supplemented with 10% FBS, 1% Pen Strep, 4 mM L-Glut, 1×MEM Non-essential Amino Acid solution and 1× Sodium Piruvate.
Once grown the MG U373 cells were plated on 24-well plate at 100,000 cells/well. The cells were treated with LPS (1 ug/mL) alone or with 10% of bacteria supernatant from MRx0029 for 24 h. LPS is a known stimulator of proinflammatory cytokines such as IL-8. Afterwards the cell free supernatants were collected, centrifuged at 10,000 g for 3 min at 4° C. IL-8 was measured using Human IL-8 ELISA Kit from Peprotech (cat n. #900-K18) according to manufacturer instruction.

In another data set the test system is GPR109a. The experiment in a line: GPR109a RNA expression in differentiated Caco-2 cells (qPCR). Type of data set: cell-based. On the technique in general: Real-time PCR tracks product formation cycle by cycle.
Data set [1] has as its system PBMCs. The experiment in a line: Cytokine analysis of PBMCs from healthy donors (multiplex immunoassay). The class given is cell-based, human. To be noted: PBMC culture, 10% bacteria supernatant, 72 h. On the procedure:
(§1) Frozen healthy human PBMCs were purchased from Stem Cells Technologies (Cambridge UK). Briefly cells were thaw and left to rest overnight in full growth media (RPMI 1640 with 10% FBS, 2 mM L. Glutamine, 55 μM 2-Mercapoethanol and 100 U/ml penicillin, 100 μg/ml streptomycin) in CO2 incubator at 37° C. For the experiment cells were plated at a density of 750,000 Cell/well in 48 well plates and treated in full growth media with 10% bacteria supernatants in the presence or absence of 1 ng/ml LPS. Cell culture media was added to untreated wells. Cells were left to rest for 72 h, thereafter cell free supernatants were collected and spun down for 3 minutes at 10,000 g at 4° C. Samples were stored at −80° C. for cytokine analysis.
PBMCs were treated as described in Example 5.
Cytokine quantification was conducted using a ProcartaPlex multiplex immunoassay following the manufacturer's recommendations (Thermo Fischer Scientific). Briefly, 50 μl of cell-free co-culture supernatants were used for cytokine quantification using a MAGPIX® MILLIPLEX® system (Merck) with the xPONENT software (Luminex, Austin, Tex., USA). Data was analysed using the MILLIPLEX® analyst software (Merck) using a 5-parameter logistic curve and background subtraction to convert mean fluorescence intensity to pg/ml values.

The next data set concerns HDAC. The experiment in a line: HDAC inhibition on HT-29 cell lysate. The class given is biochemical. On the procedure: Pure cultures of bacteria were grown anaerobically in YCFA+ broth until they reached their stationary growth phase. Cultures were centrifuged at 5,000×g for 5 minutes and the cell-free supernatant (CFS) was filtered using a […] (Millipore, UK). 1 mL aliquots of the CFS were stored at −80° C. until use. Sodium butyrate, hexanoic and valeric acid were obtained from Sigma Aldrich (UK) and suspensions were prepared in YCFA+ broth.
To investigate which metabolites were responsible for the strain-induced HDAC inhibition, different concentrations of hexanoic acid, valeric acid and sodium butyrate were measured for their HDAC inhibition on whole HT-29 cells and on HT-29 cell lysate.

Data set [2] relates to PBMCs. The experiment in a line: Basic cell phenotyping on PBMCs from healthy donors (flow cytometry). The class given is cell-based. On the procedure:
as §1
1.5×10^6 cells per sample were stained with viability fixable dye (Miltenyi) to discriminate between live and dead cells for 10 min at RT. Afterwards the cells were stained with the cocktail of antibodies listed below (Miltenyi) for basic immunophenotyping (CD3/CD4/CD8/CD25/CD127 and CD19) and incubated for 10 min at RT.
Experiments were carried out to measure the percentage of the following cell populations: • CD4+CD3+ cells (markers of CD4 T-helper cells) • CD4+CD25+ cells (markers of CD4+ activated cells) • CD25++[…] cells out of the CD4+ cell population (markers of Tregs cells) • CD8+CD3+ cells (markers of cytotoxic T cells) • CD25+CD8+ cells (markers of CD8+ activated cells) • CD19+CD3− cells (markers of B cells).
The ratio of CD8+/Tregs and the ratio of activated CD8/Treg cells were determined.
Flow cytometry analysis of different cell populations 1.5×10^6 cells per sample were stained with viability fixable dye (Miltenyi) to discriminate between live and dead cells for 10 min at RT. Afterwards the cells were stained with the cocktail of antibodies listed below (Miltenyi) for basic immunophenotyping (CD3/CD4/CD8/CD25/CD127 and CD19) and incubated for 10 min at RT. Cells were then washed and resuspended in PBS and immediately analysed using a FACS Aria II equipped with Blue (488 nm), Red (633 nm) and Violet (405 nm) lasers. FMOs were included throughout all the experiments. For the analysis Flowjo version 10.4.2 software (FlowJo, LLC) was used.
(In general: A flow cytometer gives signals particle by particle.)

Regarding Megasphaera massiliensis MRx0029, the IL-6 secretion entry in the data set with IL-6 is given as “upregulates IL-6 secretion”. The “expression of Casp3” value in the data set on Caspase 3 (Casp3) was “increased the expression of Casp3 threefold”. The “permeability function in the colon” value in the data set on colon is listed as “decrease the permeability function”. Besides, the IL-8 secretion result with IL-8 was “Increases IL-8 Secretion”. Besides, the “expression of GPR109a RNA with PMA” value in the data set on GPR109a (PMA plus supernatant vs PMA alone (or PMA in YCFA+ medium)) is on record as “greater expression of GPR109a RNA”. The “expression of GPR109a” value in the data set with GPR109a (without PMA) is on record as “increased expression of GPR109a”. For the same substance, in the data set with PBMCs [1], the “expression of IL-1β” value is reported as “increased the expression”, the “expression of IL-6” value is reported as “increased the expression”, the “expression of IL-10” value was “increased the expression” and the “expression of IL-23” value is recorded as “increased the expression”. In the data set on PBMCs [1], the “expression of MIP-3α” value is “increased the expression” and the “expression of TNF-α” value is on record as “increased the expression”. In addition, in the data set with HDAC, the “HDAC inhibition on HT-29 cell lysate” value is “strong HDAC inhibition”. For the same substance, in the data set on PBMCs [2] (10% bacteria supernatant, 72 h), the “percentage of B cells” value is on record as “did not significantly change”, the “percentage of CD4+ activated cells” value was “did not significantly change”, the “percentage of CD4 T-helper cells” value is “did not significantly change” and the “percentage of CD8+ activated cells” value is recorded as “did not significantly change”. In the data set on PBMCs [2] (10% bacteria supernatant, 72 h), the “percentage of CD25++CD17− cells (Tregs)” value was “selectively reduced the percentage of Tregs” and the “percentage of cytotoxic T cells” value is given as “did not significantly change”. Further, in the data set with PBMCs [2] (vs untreated cells), the “ratio of CD8+/Tregs” value is “increased the ratio of CD8+/Tregs” and the “ratio of activated CD8/Treg cells” value is recorded as “increased”.
